From patent publication US8574831B2, “Mutational profiles in HIV-1 reverse transcriptase correlated with phenotypic drug resistance” (Virco N.V., priority 2000, dated 2013)

Tested on: HIV with mutations in the HIV protease sequence
Assay: Phenotypic fold resistance to protease inhibitors, protease mutations 84A/84L/84C/54M/54L/54V in a background (Examples 8-13)
Assay type: cell-based, HIV-1
Method: As is the case with the genotyping assays, the recombinant virus assay starts with the amplification of viral target sequences by means of PCR. The amplicons are incorporated into a proviral laboratory clone with sequences homologous to those present in the amplicon deleted. This generates a stock of chimeric viruses. The viruses are tested for their ability to grow in the presence of different concentrations of drugs. Results are obtained by calculating IC50 values for each inhibitor and by reporting the results as IC50 values, expressed in μM concentrations, or by computing the ratio of the IC50 values found for the chimeric virus to the IC50 values found for a wild type susceptible laboratory virus tested in parallel. In the latter case, resistance is expressed as “fold-resistance” compared to a wild-type susceptible HIV-1 strain. In order to meet the need for high-volume testing and a short turn-around time for an individual test, the latest generation of phenotyping assays has undergone further modifications. The use of reporter gene systems for susceptibility testing allows the implementation of laboratory automation and standardization. See Pauwels, et al., J. Virol. Methods 20, 309-321 (1998); Paulous, S., et al., International Workshop on HIV Drug Resistance, Treatment Strategies and Eradication, St. Petersburg, Fla., USA. Abstr. 46 (1997); and Deeks, S. G., et al., 2nd International Workshop on HIV Drug Resistance and Treatment Strategies, Lake Maggiore, Italy. Abstr. 53 (1998).
The ANTIVIROGRAM® assay (Virco) (WO 97/27480) is based on homologous recombination of patient derived HIV-1 gag/PR/RT sequences into a proviral HIV-1 clone correspondingly deleted for the gag/PR/RT sequences. See Pauwels, et al., J. Virol. Methods 20, 309-321 (1998). A similar assay (Phenosense ViroLogic) is based on enzymatic ligation of patient-derived PR/RT sequences into a correspondingly deleted proviral vector carrying an indicator gene, luciferase, inserted in the deleted HIV-1 envelope gene. See Deeks, S. G., et al., 2nd International Workshop on HIV Drug Resistance and Treatment Strategies, Lake Maggiore, Italy. Abstr. 53 (1998). Hertogs et al. Antimicrob. Agents Chemother. 44(3) 568-573 (2000) the disclosures of which are herein incorporated by reference.
The methods of monitoring HIV-1 drug resistance, may also be used in combination with phenotypic drug resistance testing of viral isolates. For example, in one embodiment, a phenotypic test is utilized that is based upon the construction of chimeric HIV-1 strains composed of the protease (PR) and reverse transcriptase (RT) gene sequences which are isolated and amplified from the patient viral RNA. These strains may subsequently be recombined inside CD4+ T cells with a standard laboratory isogenic (HXB2) HIV-1 DNA construct from which the PR/RT gene sequences were deleted. The recombinant strains may then be grown in the presence of the above-mentioned antiviral drugs and the susceptibility of the viral isolates may be expressed as fold-change value of the IC50 of the drug on the patient isolates over the IC50 of the drug on a wild-type laboratory reference strain.

## Cc1c(O)cccc1C(=O)N[C@@H](CSc1ccccc1)[C@H](O)CN1C[C@H]2CCCC[C@H]2C[C@H]1C(=O)NC(C)(C)C [Nelfinavir, nelfinavir]
Table 9 #1, protease genotype WT
  mean fold increase in resistance: 0.7 fold
Table 9 #2, protease genotype 10I
  mean fold increase in resistance: 1 fold
Table 9 #3, protease genotype 46I
  mean fold increase in resistance: 1.5 fold
Table 9 #4, protease genotype 46I + 84V
  mean fold increase in resistance: 5.6 fold
Table 9 #5, protease genotype 46I + 84A
  mean fold increase in resistance: 61.9 fold
Table 9 #6, protease genotype 10I + 46I
  mean fold increase in resistance: 0.8 fold
Table 9 #7, protease genotype 10I + 46I + 84V
  mean fold increase in resistance: 3.1 fold
Table 9 #8, protease genotype 10I + 46I + 84A
  mean fold increase in resistance: 43.9 fold
Table 9 #9, protease genotype 10L/I + 46I + 84A
  mean fold increase in resistance: 56.2 fold
Table 9 #10, protease genotype 10I + 46I + 84A
  mean fold increase in resistance: 36.9 fold
Table 9 #11, protease genotype 46I + 71V
  mean fold increase in resistance: 1 fold
Table 9 #12, protease genotype 46I + 71V + 84V/I
  mean fold increase in resistance: 0.7 fold
Table 9 #13, protease genotype 46I + 71V + 84A
  mean fold increase in resistance: 59.9 fold
Table 9 #14, protease genotype 10F + 46I + 71V
  mean fold increase in resistance: 45.2 fold
Table 9 #15, protease genotype 10I + 46I + 71V + 84V
  mean fold increase in resistance: 57.1 fold
Table 9 #16, protease genotype 10I + 46I + 71V + 84A
  mean fold increase in resistance: 54.9 fold
Table 9 #17, protease genotype 10V + 46I + 71T + 84A
  mean fold increase in resistance: 51.2 fold
Table 9 #18, protease genotype 10I + 46I + 71V + 77I
  mean fold increase in resistance: 6.1 fold
Table 9 #19, protease genotype 10I + 46I + 71V + 77I + 84V
  mean fold increase in resistance: 2.8 fold
Table 9 #20, protease genotype 10I + 46I + 71V + 77I + 84A
  mean fold increase in resistance: 68.6 fold
Table 9 #21, protease genotype 10I + 33L/I + 46I + 71V + 77V/I + 84A
  mean fold increase in resistance: 63.1 fold
Table 10 #1, protease genotype 10I + 36I + 71V
  mean fold increase in resistance: 1.5 fold
Table 10 #2, protease genotype 10I + 36I + 71I + 84V
  mean fold increase in resistance: 0.8 fold
Table 10 #3, protease genotype 10I + 36I + 71I + 84L
  mean fold increase in resistance: 39.4 fold
Table 11 #1, protease genotype WT
  mean fold increase in resistance: 0.7 fold
Table 11 #2, protease genotype 84V
  mean fold increase in resistance: 0.9 fold
Table 11 #3, protease genotype 84C
  mean fold increase in resistance: 51.2 fold
Table 11 #4, protease genotype 10I
  mean fold increase in resistance: 1.0 fold
Table 11 #5, protease genotype 10I + 84V
  mean fold increase in resistance: 2.0 fold
Table 11 #6, protease genotype 10I + 84C
  mean fold increase in resistance: 61.9 fold
Table 11 #7, protease genotype 77I
  mean fold increase in resistance: 0.9 fold
Table 11 #8, protease genotype 77I + 84V
  mean fold increase in resistance: 2.8 fold
Table 11 #9, protease genotype 77I + 84C
  mean fold increase in resistance: 61.9 fold
Table 11 #10, protease genotype 77I + 84C
  mean fold increase in resistance: 38.2 fold
Table 11 #11, protease genotype 10I + 24I + 36I + 46I + 71V + 84C
  mean fold increase in resistance: 51.7 fold
Table 12, V19263, genotype 77I
  Fold change in IC50: 0.9 fold
Table 12, V20160, genotype WT
  Fold change in IC50: 0.7 fold
Table 12, V021667, genotype 10I
  Fold change in IC50: 1.0 fold
Table 12, V030496, genotype 10I + 77I
  Fold change in IC50: 0.7 fold
Table 12, V048869, genotype 10I + 54M + 77I + 90M
  Fold change in IC50: 28.5 fold
Table 12, V048872, genotype 33F + 54M + 77I + 90M
  Fold change in IC50: 7.4 fold
Table 12, V048873, genotype 33F + 54M + 77I + 90M
  Fold change in IC50: 7.7 fold
Table 12, V048877, genotype 10I + 33F + 77I + 90M
  Fold change in IC50: 9.4 fold
Table 12, V048878, genotype 10I + 33F + 54M + 71V + 77I + 90M
  Fold change in IC50: 7.3 fold
Table 12, V048879, genotype 10I + 33F + 54M + 71V + 77I + 90M
  Fold change in IC50: 45.7 fold
Table 12, V048880, genotype 10I + 33F + 77I + 90M
  Fold change in IC50: 4.9 fold
Table 12, V052940, genotype 71V
  Fold change in IC50: 0.6 fold
Table 12, V052942, genotype 10I + 71V
  Fold change in IC50: 0.9 fold
Table 12, V052943, genotype 10I + 90M
  Fold change in IC50: 2.2 fold
Table 12, V052944, genotype 10I + 90M
  Fold change in IC50: 1.4 fold
Table 12, V052945, genotype 77I + 90M
  Fold change in IC50: 3.0 fold
Table 12, V052946, genotype 71V + 90M
  Fold change in IC50: 3.0 fold
Table 12, V052947, genotype 10I + 77I + 90M
  Fold change in IC50: 8.2 fold
Table 12, V052948, genotype 10I + 71V + 90M
  Fold change in IC50: 9.0 fold
Table 12, V052949, genotype 10I + 71V + 77I + 90M
  Fold change in IC50: 8.6 fold
Table 12, V052950, genotype 33F
  Fold change in IC50: 1.0 fold
Table 12, V052951, genotype 33F + 77I
  Fold change in IC50: 5.2 fold
Table 12, V052953, genotype 10I + 33F + 77I
  Fold change in IC50: 0.9 fold
Table 12, V052954, genotype 33F + 77I + 90M
  Fold change in IC50: 5.9 fold
Table 12, V052955, genotype 33F + 71V + 90M
  Fold change in IC50: 36.6 fold
Table 12, V052977, genotype 10I + 33F + 54M
  Fold change in IC50: 3.8 fold
Table 12, V052978, genotype 10I + 33F + 54M + 71V + 90M
  Fold change in IC50: 29.1 fold
Table 12, V052979, genotype 10I + 54M
  Fold change in IC50: 3.8 fold
Table 12, V052980, genotype 10I + 54M + 90M
  Fold change in IC50: 7.0 fold
Table 12, V052981, genotype 10I + 54M + 71V + 90M
  Fold change in IC50: 8.7 fold
Table 12, V052982, genotype 10I + 54M + 71V + 77I + 90M
  Fold change in IC50: 10.1 fold
Table 12, V053832, genotype 10I + 33F
  Fold change in IC50: 1.6 fold
